Test results published in PubChem BioAssay (NCI).
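Growth conditions: 96-well plates. Treatment: test compound, 48 hours, 5 concentrations. Analysis: linear interpolation between bracketing concentrations; unreached endpoints set to highest concentration. TGI: concentration producing complete growth inhibition.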

Experiments:
Assay in all cases: NCI anticancer screen, dose series, 48 h
RPMI-8226 leukemia = tested on: RPMI-8226 leukemia
MDA-MB-231 breast = tested on: MDA-MB-231 breast
TK-10 renal = tested on: TK-10 renal
IGROV1 ovarian = tested on: IGROV1 ovarian
SK-MEL-2 melanoma = tested on: SK-MEL-2 melanoma
HS 578T breast = tested on: HS 578T breast
A498 renal = tested on: A498 renal
A549 NSCLC = tested on: A549 NSCLC
NCI-H23 lung = tested on: NCI-H23 lung
ACHN renal = tested on: ACHN renal
M14 melanoma = tested on: M14 melanoma
MDA-MB-435 = tested on: MDA-MB-435
MDA-N = tested on: MDA-N
SF-295 CNS = tested on: SF-295 CNS
OVCAR-8 ovarian = tested on: OVCAR-8 ovarian
RXF 393 renal = tested on: RXF 393 renal
SW-620 colon = tested on: SW-620 colon
OVCAR-4 ovarian = tested on: OVCAR-4 ovarian
UO-31 renal = tested on: UO-31 renal
HCT-15 colon = tested on: HCT-15 colon
SF-268 CNS = tested on: SF-268 CNS
HOP-92 NSCLC = tested on: HOP-92 NSCLC
LOX IMVI melanoma = tested on: LOX IMVI melanoma
UACC-257 melanoma = tested on: UACC-257 melanoma
PC-3 prostate = tested on: PC-3 prostate
OVCAR-5 ovarian = tested on: OVCAR-5 ovarian
HT29 colon = tested on: HT29 colon
U251 CNS = tested on: U251 CNS
SNB-19 CNS = tested on: SNB-19 CNS
OVCAR-3 ovarian = tested on: OVCAR-3 ovarian
786-0 renal = tested on: 786-0 renal
CCRF-CEM leukemia = tested on: CCRF-CEM leukemia
NCI-H460 lung = tested on: NCI-H460 lung
NCI/ADR-RES ovarian = tested on: NCI/ADR-RES ovarian
KM12 colon = tested on: KM12 colon
CAKI-1 renal = tested on: CAKI-1 renal
SNB-75 CNS = tested on: SNB-75 CNS
T-47D breast = tested on: T-47D breast
EKVX NSCLC = tested on: EKVX NSCLC
MALME-3M melanoma = tested on: MALME-3M melanoma
SK-MEL-28 melanoma = tested on: SK-MEL-28 melanoma
MCF7 breast = tested on: MCF7 breast
NCI-H522 lung = tested on: NCI-H522 lung
NCI-H226 lung = tested on: NCI-H226 lung
COLO 205 colon = tested on: COLO 205 colon
SK-MEL-5 melanoma = tested on: SK-MEL-5 melanoma
SN12C renal = tested on: SN12C renal
UACC-62 melanoma = tested on: UACC-62 melanoma
BT-549 breast = tested on: BT-549 breast
SF-539 CNS = tested on: SF-539 CNS
K-562 leukemia = tested on: K-562 leukemia
HOP-62 NSCLC = tested on: HOP-62 NSCLC
DU-145 prostate = tested on: DU-145 prostate
SK-OV-3 ovarian = tested on: SK-OV-3 ovarian
HCT-116 colon = tested on: HCT-116 colon

CCc1ncnc2cc(OCC3CO3)c(OC)cc12 (stereo not given)
TGI (RPMI-8226 leukemia): 5.38 µM | TGI (MDA-MB-231 breast): 60.9 µM | TGI (TK-10 renal): 69.5 µM | TGI (IGROV1 ovarian): 6.8 µM | TGI (SK-MEL-2 melanoma): 12.4 µM | TGI (HS 578T breast): 42 µM | TGI (A498 renal): 58.1 µM | TGI (A549 NSCLC): > 100 µM | TGI (NCI-H23 lung): 16.2 µM | TGI (ACHN renal): 21.6 µM | TGI (M14 melanoma): 23.8 µM | TGI (MDA-MB-435): 21.7 µM | TGI (MDA-N): 21.8 µM | TGI (SF-295 CNS): 30.3 µM | TGI (OVCAR-8 ovarian): 14.3 µM | TGI (RXF 393 renal): 18.7 µM | TGI (SW-620 colon): > 50.8 µM | TGI (OVCAR-4 ovarian): 24.7 µM | TGI (UO-31 renal): 18.4 µM | TGI (HCT-15 colon): 34.9 µM | TGI (SF-268 CNS): > 100 µM | TGI (HOP-92 NSCLC): 26.7 µM | TGI (LOX IMVI melanoma): > 46.9 µM | TGI (UACC-257 melanoma): 52.9 µM | TGI (PC-3 prostate): > 100 µM | TGI (OVCAR-5 ovarian): > 100 µM | TGI (HT29 colon): > 100 µM | TGI (U251 CNS): > 100 µM | TGI (SNB-19 CNS): > 100 µM | TGI (OVCAR-3 ovarian): > 100 µM | TGI (786-0 renal): 20.7 µM | TGI (CCRF-CEM leukemia): 27.2 µM | TGI (NCI-H460 lung): 43.8 µM | TGI (NCI/ADR-RES ovarian): > 100 µM | TGI (KM12 colon): 49.3 µM | TGI (CAKI-1 renal): > 100 µM | TGI (SNB-75 CNS): 53.7 µM | TGI (T-47D breast): > 100 µM | TGI (EKVX NSCLC): > 100 µM | TGI (MALME-3M melanoma): 42 µM | TGI (SK-MEL-28 melanoma): 37.4 µM | TGI (MCF7 breast): > 42.7 µM | TGI (NCI-H522 lung): 9.94 µM | TGI (NCI-H226 lung): > 100 µM | TGI (COLO 205 colon): 21.8 µM | TGI (SK-MEL-5 melanoma): 21.9 µM | TGI (SN12C renal): 16.7 µM | TGI (UACC-62 melanoma): 18.4 µM | TGI (BT-549 breast): 15.1 µM | TGI (SF-539 CNS): 25.2 µM | TGI (K-562 leukemia): > 80.3 µM | TGI (HOP-62 NSCLC): 38.7 µM | TGI (DU-145 prostate): > 100 µM | TGI (SK-OV-3 ovarian): 73.6 µM | TGI (HCT-116 colon): > 33.7 µM
